Test results reported in BindingDB's records for doi:10.1016/j.bmcl.2013.08.079 (Saint John'S University, 2013).

Target: Low molecular weight phosphotyrosine protein phosphatase (Homo sapiens) (UniProt P24666)
Assay: Noncompetitive inhibition of human GST-tagged LMW-PTP-B expressed in Escherichia coli JM 109 cells using p-nitrophenyl phosphate as substrate after 15 mins by microplate reader analysis

Low molecular weight phosphotyrosine protein phosphatase (Homo sapiens), sequence (P24666 whole entry, looked up): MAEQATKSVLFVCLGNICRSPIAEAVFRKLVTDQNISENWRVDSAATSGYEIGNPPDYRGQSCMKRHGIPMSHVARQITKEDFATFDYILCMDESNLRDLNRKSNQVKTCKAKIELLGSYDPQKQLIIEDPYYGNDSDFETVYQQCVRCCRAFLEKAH

| SMILES | Ki [µM] |
| --- | --- |
| O=C(O)c1nc2nc(Cl)c(Cl)nc2[nH]1 | 26 |
| CC(=O)Nc1c(C)cc(OCC(=O)O)cc1C | 73.2 |
